Laboratory results published in PMC9414551 (Pharmaceuticals, 2022).

What was measured:
NR1-2B NMDAR [1] = target: T1, NR1-2B NMDAR (Homo sapiens, UniProt Q05586+Q13224); experiment: cell-based; type: cell-based; design: host or cells: CHO (CHO-hNR1-h2B), constitutive expression
NR1-2C NMDAR [2] = target: T2, NR1-2C NMDAR (Homo sapiens, UniProt Q05586+Q14957); experiment: cell-based; type: cell-based; design: host or cells: CHO (CHO-hN1-h2C), tetracycline-induced expression
NR1-2D NMDAR [3] = target: T3, NR1-2D NMDAR (Homo sapiens, UniProt O15399+Q05586); experiment: cell-based; type: cell-based; design: host or cells: CHO (CHO-hN1-h2D), tetracycline-induced expression
NR1-2A NMDAR [4] = target: T4, NR1-2A NMDAR (Homo sapiens, UniProt Q05586+Q12879); experiment: cell-based; type: cell-based; design: host or cells: CHO (CHO-hNR1-h2A), tetracycline-induced expression
NR1-2B NMDAR [5] = target: T1, NR1-2B NMDAR; experiment: Whole-cell automated patch-clamp (QPatch) in 1 mM Mg2+; type: cell-based; design: host or cells: CHO (CHO-hNR1-h2B), constitutive expression; settings: 1 mM MgCl2, 10 μM L-glutamate, 10 μM glycine
Protocol: (§1) Data were obtained in automated patch-clamp platform. […] Statistical results of one-way analysis of variance (ANOVA) followed by Tukey’s multiple comparisons test also reported p < 0.05 (*), p < 0.01 (**), p < 0.001 (***), and p < 0.0001 (****). Glu is glutamate.
(§2) For QPatch experiments, cells were grown in T-flasks first at 37 °C, 5% CO2 for 3 to 4 h, then at 30 °C, 5% CO2 for 18 to 24 h in DMEM/F12 medium with added 500 μM ketamine and 10 μg/mL tetracycline (except for NR1-2B-CHO cells) without additional antibiotics. Cells were manually detached from the culture dish and automatically dispensed in QPatch wells with extracellular solution in the presence of 1 mM Mg^2+ and 500 μM ketamine.
(§3) Holding potential was −80 mV, and voltage protocol included a depolarizing 2-s step pulse to +60 mV to check the quality of the seal and cell NMDAR expression level, followed by a 2-s ramp-up to holding potential.

NR1-2C NMDAR [6] = target: T2, NR1-2C NMDAR; experiment: as above; type: cell-based; design: host or cells: CHO (CHO-hN1-h2C), tetracycline-induced expression; settings: 1 mM MgCl2, 10 μM L-glutamate, 10 μM glycine
Protocol: as §1, §2, §3

NR1-2D NMDAR [7] = target: T3, NR1-2D NMDAR; experiment: as above; type: cell-based; design: host or cells: CHO (CHO-hN1-h2D), tetracycline-induced expression; settings: 1 mM MgCl2, 10 μM L-glutamate, 10 μM glycine
Protocol: as §1, §2, §3

NR1-2A NMDAR [8] = target: T4, NR1-2A NMDAR; experiment: as above; type: cell-based; design: host or cells: CHO (CHO-hNR1-h2A), tetracycline-induced expression; settings: 1 mM MgCl2, 10 μM L-glutamate, 10 μM glycine
Protocol: as §1, §2, §3

NMDAR = target: NMDAR; design: method as in Eurofins Panlabs Discovery Services Taiwan; settings: assay parameter of the contract laboratory; ref Eurofins Panlabs Discovery Services Taiwan; read-out: Kd of the radioligand; cited from earlier work

T1 sequence (Q13224 27-1484, other chains not shown): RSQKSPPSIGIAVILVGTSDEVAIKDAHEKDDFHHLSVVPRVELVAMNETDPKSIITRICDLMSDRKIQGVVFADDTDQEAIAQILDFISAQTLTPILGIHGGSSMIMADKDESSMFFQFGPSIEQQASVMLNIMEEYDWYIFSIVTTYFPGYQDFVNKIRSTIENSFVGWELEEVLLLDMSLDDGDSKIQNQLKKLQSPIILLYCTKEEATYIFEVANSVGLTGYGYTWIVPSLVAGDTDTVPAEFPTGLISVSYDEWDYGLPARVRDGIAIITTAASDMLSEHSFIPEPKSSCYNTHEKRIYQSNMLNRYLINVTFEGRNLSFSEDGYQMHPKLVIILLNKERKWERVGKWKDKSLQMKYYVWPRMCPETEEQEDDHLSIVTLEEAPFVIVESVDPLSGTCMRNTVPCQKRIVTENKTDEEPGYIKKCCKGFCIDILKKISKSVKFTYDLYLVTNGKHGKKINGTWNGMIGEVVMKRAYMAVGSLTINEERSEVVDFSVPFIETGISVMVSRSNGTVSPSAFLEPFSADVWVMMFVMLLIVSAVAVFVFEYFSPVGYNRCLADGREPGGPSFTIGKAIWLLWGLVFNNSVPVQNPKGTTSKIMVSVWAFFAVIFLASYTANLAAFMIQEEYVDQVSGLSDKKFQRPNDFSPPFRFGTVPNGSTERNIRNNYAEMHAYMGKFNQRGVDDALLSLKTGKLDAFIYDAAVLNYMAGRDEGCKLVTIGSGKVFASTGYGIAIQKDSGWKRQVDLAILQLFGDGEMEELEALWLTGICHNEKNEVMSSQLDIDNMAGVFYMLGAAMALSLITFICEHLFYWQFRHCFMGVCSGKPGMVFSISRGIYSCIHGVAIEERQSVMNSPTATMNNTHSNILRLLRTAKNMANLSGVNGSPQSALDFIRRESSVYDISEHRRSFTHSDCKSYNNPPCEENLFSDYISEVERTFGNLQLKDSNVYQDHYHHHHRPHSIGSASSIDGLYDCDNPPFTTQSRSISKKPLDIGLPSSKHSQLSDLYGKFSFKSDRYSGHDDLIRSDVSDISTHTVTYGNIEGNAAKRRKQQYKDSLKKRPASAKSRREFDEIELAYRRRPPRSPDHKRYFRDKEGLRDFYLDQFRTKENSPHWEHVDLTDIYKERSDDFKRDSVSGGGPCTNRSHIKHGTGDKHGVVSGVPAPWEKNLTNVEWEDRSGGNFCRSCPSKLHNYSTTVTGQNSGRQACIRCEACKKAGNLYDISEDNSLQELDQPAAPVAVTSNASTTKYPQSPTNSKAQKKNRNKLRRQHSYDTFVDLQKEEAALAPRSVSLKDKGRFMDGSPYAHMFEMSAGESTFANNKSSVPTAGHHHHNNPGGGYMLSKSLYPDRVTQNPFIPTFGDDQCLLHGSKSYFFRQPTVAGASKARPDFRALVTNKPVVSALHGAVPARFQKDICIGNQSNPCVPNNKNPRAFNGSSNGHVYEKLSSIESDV
T3 sequence (O15399 28-1336, other chains not shown): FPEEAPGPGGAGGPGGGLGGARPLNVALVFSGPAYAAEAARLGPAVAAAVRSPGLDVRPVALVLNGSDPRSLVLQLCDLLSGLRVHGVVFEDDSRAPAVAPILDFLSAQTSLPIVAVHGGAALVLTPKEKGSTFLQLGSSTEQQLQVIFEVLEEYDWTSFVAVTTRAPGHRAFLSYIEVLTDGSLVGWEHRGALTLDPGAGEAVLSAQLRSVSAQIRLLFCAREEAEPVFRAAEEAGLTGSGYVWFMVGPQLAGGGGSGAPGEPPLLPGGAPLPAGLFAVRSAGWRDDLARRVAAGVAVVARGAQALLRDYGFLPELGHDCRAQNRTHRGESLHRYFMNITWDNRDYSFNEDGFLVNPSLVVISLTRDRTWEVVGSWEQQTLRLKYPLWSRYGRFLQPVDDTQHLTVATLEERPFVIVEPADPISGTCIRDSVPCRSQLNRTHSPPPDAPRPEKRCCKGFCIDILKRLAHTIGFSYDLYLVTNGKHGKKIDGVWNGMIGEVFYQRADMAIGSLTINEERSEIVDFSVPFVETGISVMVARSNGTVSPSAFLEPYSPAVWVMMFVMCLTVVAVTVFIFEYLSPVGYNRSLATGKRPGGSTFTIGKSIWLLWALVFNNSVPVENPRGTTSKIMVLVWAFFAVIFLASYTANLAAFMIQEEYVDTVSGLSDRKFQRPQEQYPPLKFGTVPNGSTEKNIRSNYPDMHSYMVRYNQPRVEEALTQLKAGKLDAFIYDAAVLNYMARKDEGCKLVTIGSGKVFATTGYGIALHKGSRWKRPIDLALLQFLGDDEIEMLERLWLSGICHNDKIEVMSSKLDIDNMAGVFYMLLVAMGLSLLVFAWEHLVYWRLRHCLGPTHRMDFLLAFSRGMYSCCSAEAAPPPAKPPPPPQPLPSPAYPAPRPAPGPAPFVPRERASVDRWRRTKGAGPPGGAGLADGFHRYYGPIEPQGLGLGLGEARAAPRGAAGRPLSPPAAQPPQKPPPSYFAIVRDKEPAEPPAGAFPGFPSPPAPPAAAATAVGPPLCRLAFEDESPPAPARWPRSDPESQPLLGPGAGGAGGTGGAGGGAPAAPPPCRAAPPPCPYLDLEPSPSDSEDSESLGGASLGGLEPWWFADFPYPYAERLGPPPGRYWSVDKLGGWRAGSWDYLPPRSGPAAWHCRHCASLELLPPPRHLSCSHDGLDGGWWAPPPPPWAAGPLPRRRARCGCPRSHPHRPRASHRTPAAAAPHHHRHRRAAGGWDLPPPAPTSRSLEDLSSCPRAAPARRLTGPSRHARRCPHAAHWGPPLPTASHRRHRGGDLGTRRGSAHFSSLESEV
T4 sequence (Q12879 23-1464, other chains not shown): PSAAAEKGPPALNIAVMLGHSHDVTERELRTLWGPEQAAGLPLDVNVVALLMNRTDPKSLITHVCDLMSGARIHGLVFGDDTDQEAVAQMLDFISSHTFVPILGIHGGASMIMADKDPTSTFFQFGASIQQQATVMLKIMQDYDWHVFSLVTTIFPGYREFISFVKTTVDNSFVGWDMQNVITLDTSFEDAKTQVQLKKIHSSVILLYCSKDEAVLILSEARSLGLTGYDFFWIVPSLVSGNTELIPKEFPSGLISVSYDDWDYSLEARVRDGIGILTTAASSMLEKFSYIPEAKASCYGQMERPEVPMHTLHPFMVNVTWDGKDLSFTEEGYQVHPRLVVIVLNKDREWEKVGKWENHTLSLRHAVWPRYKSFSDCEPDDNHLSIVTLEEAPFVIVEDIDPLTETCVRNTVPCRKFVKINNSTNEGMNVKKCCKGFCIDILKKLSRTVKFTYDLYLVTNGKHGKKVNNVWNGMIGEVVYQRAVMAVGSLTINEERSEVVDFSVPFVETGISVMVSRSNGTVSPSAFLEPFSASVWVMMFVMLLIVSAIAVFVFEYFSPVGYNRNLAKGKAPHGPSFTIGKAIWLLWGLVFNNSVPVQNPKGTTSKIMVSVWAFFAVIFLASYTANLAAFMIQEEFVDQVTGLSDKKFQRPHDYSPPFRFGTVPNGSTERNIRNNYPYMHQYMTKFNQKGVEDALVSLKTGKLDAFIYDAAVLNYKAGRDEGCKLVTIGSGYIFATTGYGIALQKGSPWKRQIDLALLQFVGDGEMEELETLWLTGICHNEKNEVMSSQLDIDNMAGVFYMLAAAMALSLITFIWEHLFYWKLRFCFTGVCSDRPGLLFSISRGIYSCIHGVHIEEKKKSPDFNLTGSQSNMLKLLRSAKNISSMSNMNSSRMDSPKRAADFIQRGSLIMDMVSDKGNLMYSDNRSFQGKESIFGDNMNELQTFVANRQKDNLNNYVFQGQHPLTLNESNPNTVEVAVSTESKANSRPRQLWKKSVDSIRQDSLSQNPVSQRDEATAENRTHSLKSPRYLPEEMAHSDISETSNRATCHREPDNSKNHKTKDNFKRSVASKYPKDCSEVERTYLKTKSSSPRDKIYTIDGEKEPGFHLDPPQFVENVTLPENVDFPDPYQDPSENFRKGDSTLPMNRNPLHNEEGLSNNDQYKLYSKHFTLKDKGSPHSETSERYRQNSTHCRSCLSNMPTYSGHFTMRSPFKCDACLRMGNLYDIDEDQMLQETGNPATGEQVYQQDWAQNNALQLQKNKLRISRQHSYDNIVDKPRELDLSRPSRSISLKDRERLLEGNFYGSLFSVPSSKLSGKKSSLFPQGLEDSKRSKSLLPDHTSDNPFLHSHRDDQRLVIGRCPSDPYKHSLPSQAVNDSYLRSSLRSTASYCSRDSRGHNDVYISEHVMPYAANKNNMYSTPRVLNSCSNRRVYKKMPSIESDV

## N[C@@H](CCC(=O)O)C(=O)O [L-glutamate]
NR1-2B NMDAR [1]
  L-glutamate Max. (maximal asymptote), alone: 111%
NR1-2C NMDAR [2]
  L-glutamate Max. (maximal asymptote), alone: 106%
NR1-2D NMDAR [3]
  L-glutamate Max. (maximal asymptote), alone: 105%
NR1-2A NMDAR [4]
  L-glutamate Max. (maximal asymptote), alone: 106%

## [Cl-].[Cl-].[Mg+2] [MgCl2]
NR1-2B NMDAR [5]
  current at −60 mV normalized to −30 mV current (100%): 26 ± 1.8%
NR1-2C NMDAR [6]
  current at −60 mV normalized to −30 mV current (100%): 64 ± 5.6%
NR1-2D NMDAR [7]
  current at −60 mV normalized to −30 mV current (100%): 55 ± 1.8%
NR1-2A NMDAR [8]
  current at −60 mV normalized to −30 mV current (100%): 24 ± 2.4%

## c1csc(C2(N3CCCCC3)CCCCC2)c1 [[^3H]TCP]
NMDAR
  Kd: 8.4 nM
